From PMC4840416, “Constructing and Validating High-Performance MIEC-SVM Models in Virtual Screening for Kinases: A Better Way for Actives Discovery” (Scientific Reports, 2016)

Target: T1, recombinant human ALK protein (Homo sapiens, UniProt Q9UM73)
T1 construct: purchased Life Technologies Inc. PV3867
Assay: LanthaScreen TR-FRET in vitro inhibitory activity assay of ALK
Type: biochemical
Conditions: compound at 2ug/ml
Method: All reagents and anhydrous solvents were obtained from commercial sources and used as received. The positive control inhibitors of ALK, crizotinib and ceritinib, were purchased from Bangshunda Technology and Selleck Chemicals, respectively. The compounds were dissolved in 100% dimethyl sulfoxide (DMSO) as a 10 mM stock solution. The final DMSO concentration in each reaction was less than 1%. Purified recombinant human ALK protein (Catalog number: PV3867) as well as reagents for TR-FRET assay, including Lantha Screen™ Tb-PY20 (Catalog number: PV3552), Fluorescein-Poly GT (Catalog number: PV3610), ATP (Catalog number: PV3227), Kinase Quench Buffer (Catalog number: P2832), Kinase Buffer (Catalog number: PV3189), and Antibody Dilution Buffer (Catalog number: PV3574), were all obtained from Life Technologies Inc.
Lantha Screen™ kinase assay based on TR-FRET technology was used to measure the inhibitory activity of the screened compounds. All the assays were carried out in 384-well plate format. The 4 × test compounds were firstly prepared before the enzyme reaction starts. The 4 × recombinant human ALK protein and 2 × Substrate/ATP mixture were separately prepared in 50 mM HEPES (pH = 7.5), 0.01% BRIJ-35, 10 mM MgCl2, 4 mM MnCl2, 1 mM EGTA, and 2 mM DTT. The final 10 μL kinase reaction consists of 5 μL 1 × Substrate/ATP mixture (0.2 μM substrate and 5 μM ATP), 2.5 μL ALK (5 ng/ml ALK protein), and 2.5 μL 1 × test compounds with desired concentration. The assay plate was shook on a plate shaker for 30 seconds to mix the reactions thoroughly. After 1 hour kinase reaction incubation at room temperature (20 ~ 25 °C), 10 μL of pre-prepared 20 mM EDTA and 4 nM Tb-labeled antibody solution was then added to terminate the kinase reactions and to initiate antibody binding, and the assay plate was incubated for another 1 hour at room temperature. Then, the assay plate was placed into a fluorescence plate reader (BioTek Synergy™ 4) to measure both fluoresce in and terbium emission signals (excitation: 340 nm; emission: 520 and 495 nm, respectively) with 100 μs delay time and 200 μs integration time. To determine the IC50 values, the resulted inhibitory activity calculated from TR-FRET emission ratio (i.e. fluoresce in emission intensity/terbium emission intensity) was plotted against the concentration of inhibitor, and the data was fitted to a dose-response curve with a variable slop.

T1 sequence (Q9UM73 1058-1620 limits assumed): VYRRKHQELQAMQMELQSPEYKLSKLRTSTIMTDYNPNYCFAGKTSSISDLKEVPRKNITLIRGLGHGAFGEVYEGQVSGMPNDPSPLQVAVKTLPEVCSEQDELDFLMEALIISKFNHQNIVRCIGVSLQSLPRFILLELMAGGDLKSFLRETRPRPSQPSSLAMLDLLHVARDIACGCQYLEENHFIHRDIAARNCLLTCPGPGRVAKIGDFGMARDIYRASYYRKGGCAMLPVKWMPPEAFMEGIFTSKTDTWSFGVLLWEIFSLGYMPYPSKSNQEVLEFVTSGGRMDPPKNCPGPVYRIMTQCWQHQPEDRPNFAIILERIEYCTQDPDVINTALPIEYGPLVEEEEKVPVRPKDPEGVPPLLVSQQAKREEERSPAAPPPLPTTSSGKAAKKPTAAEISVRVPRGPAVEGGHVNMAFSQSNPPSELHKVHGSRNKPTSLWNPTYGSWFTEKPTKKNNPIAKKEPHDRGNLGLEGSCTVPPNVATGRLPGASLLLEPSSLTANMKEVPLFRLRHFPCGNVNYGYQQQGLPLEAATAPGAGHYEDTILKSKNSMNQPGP

SMILES | Averaged Enzymatic Inhibition @ 2ug/ml (%)
O=C1/C(=C/c2ccc(-c3cccc(Cl)c3)o2)CCC/C1=C\c1ccc(-c2cccc(Cl)c2)o1 [AA-504/07472022] | 40.455
c1ccc2cc3c(ccc4ccc5cc6c(ccc7ccccc76)cc5c43)cc2c1 [AB-131/42301451] | 28.575
Cc1ccc(-c2nc(N3CC4(C)CC3CC(C)(C)C4)c3ccccc3n2)cc1 (stereo not shown) [AE-641/40974923] | 13.995
c1ccc(-c2oc3ncn4nc(COc5cccc6ccccc56)nc4c3c2-c2ccccc2)cc1 [AE-848/12917024] | 13.565
CC(C)c1ccc(-c2c(C#N)c(N)nc3sc(C(=O)Nc4ccc(Cl)cc4)c(N)c23)cc1 [AE-848/15116593] | -8.375
Cc1ccccc1NC(=O)c1sc2nc(N)c(C#N)c(-c3ccc(C(C)C)cc3)c2c1N [AE-848/15116597] | 8.9
Cc1ccc(NC(=O)c2sc3nc(N)c(C#N)c(-c4ccc(C(C)C)cc4)c3c2N)cc1Cl [AE-848/15116611] | 10.08
O=C1C2=C(NC3=C(C(=O)c4ccccc43)C23C(=O)c2cccc4cccc3c24)c2ccccc21 [AE-848/15341192] | 13.145
COc1ccc(-n2c(-c3ccc(-c4ccccc4)cc3)nnc2-c2cccc3ccccc23)cc1 [AE-848/32007021] | 5.085
Cc1cccc(C)c1OCC(O)CN1CCC(CN2C(=O)c3cccc4cccc(c34)C2=O)CC1 (stereo not shown) [AF-399/14388040] | -20.41
O=C1c2cccc3cccc(c23)C(=O)N1CC1CCN(S(=O)(=O)/C=C/c2ccccc2)CC1 [AF-399/14864072] | -20.25
OC(CNCCc1ccccc1)Cn1c(-c2ccccc2)c(-c2ccccc2)c2ccc3ccccc3c21 (stereo not shown) [AF-399/15128092] | -33.405
Cc1cc(C)c2c(c1)c(-c1ccccc1)c(-c1ccccc1)n2CC(O)CNCc1ccccc1 (stereo not shown) [AF-399/15128108] | -21.105
Cc1cc(C)c2c(c1)c(-c1ccccc1)c(-c1ccccc1)n2CC(O)CNc1ccc(C(C)C)cc1 (stereo not shown) [AF-399/15128126] | 32.1
Cc1cc(C)c2c(c1)c(-c1ccccc1)c(-c1ccccc1)n2CC(O)CN1CCC(C)CC1 (stereo not shown) [AF-399/15128132] | -9.645
CC(C)N(C(=O)Cn1c(/C=C/c2ccccc2)nc2ccccc21)c1ccccc1 [AF-399/15335536] | 5.725
Cc1ccc(-c2ccc(/C=C3/SC(N4CCN(c5cccc(C)c5)CC4)=NC3=O)o2)cc1 [AF-399/40881300] | 13.735
Cc1ccc(C2C(C(=O)c3cc4ccccc4o3)=C(O)C(=O)N2c2nc3c(C)cc(C)cc3s2)cc1 (stereo not shown) [AF-399/42017504] | -5.97
Nc1cc(NC(=O)c2cn(-c3ccccc3)nc2-c2ccccc2)cc(Oc2ccccc2)c1 [AG-205/33688061] | 14.9
C=CCN(C(=O)c1ccc2nc(-c3ccccc3)c(-c3ccccc3)nc2c1)c1ccccc1 [AG-205/36717014] | 19.28
COc1cc(/C=N/n2c(-c3ccccc3)n[nH]c2=S)cc(OC)c1O [AG-205/36915079] | 18.19
CCc1ccc(-n2c(CSc3nnnn3-c3ccccc3)nc3ccccc3c2=O)cc1 [AG-205/37086057] | 40.815

SMILES | Averaged Enzymatic Inhibition @ 2ug/ml (%)
Cc1ccccc1NC(=O)c1cc2ccccc2c(C=Nc2ccccc2Cl)c1O [AG-664/32341038] | 6.53
Cc1cc(C)c2oc(-c3ccc(C)c(NS(=O)(=O)c4cc([N+](=O)[O-])ccc4Cl)c3)nc2c1 [AG-690/08629011] | 26.47
Cc1ccc(NC(=O)c2ccc(-c3ccccc3)cc2)c(OC(=O)c2ccc(-c3ccccc3)cc2)c1 [AG-690/09396003] | 3.685
CCCn1c(=O)c(C(=O)NNS(=O)(=O)c2ccc(Br)cc2)c(O)c2ccccc21 [AG-690/11765341] | 9.265
Cc1ccc(OS(=O)(=O)c2cccc(C(=O)Nc3ccccc3)c2)c(-n2nc3ccccc3n2)c1 [AG-690/11836103] | -16.78
Cc1ccc(-c2cc(-c3c(-c4ccccc4)c4cc(Cl)ccc4[nH]c3=O)nc3ccccc23)cc1 [AG-690/12134081] | 10.575
O=C1c2ccccc2-c2c1c(-c1cccc(Oc3ccccc3)c1)nc1ccc3ccccc3c21 [AG-690/12869023] | 12.235
c1ccc(-c2oc3ncn4nc(CSc5nc6ccccc6s5)nc4c3c2-c2ccccc2)cc1 [AG-690/12869680] | -1.245
Cc1ccccc1-c1nnc(-c2ccc(-c3ccccc3)cc2)n1-c1ccccc1 [AG-690/33068064] | 4.62
c1ccc2c(c1)Oc1ccccc1C2=C1c2ccccc2Oc2ccccc21 [AG-690/36541063] | 11.335
CC1=C(C(=O)Nc2ccccc2)C(c2ccccc2)n2c(s/c(=C/C=C\c3ccccc3)c2=O)=N1 (stereo not shown) [AG-690/37079179] | 15.845
O=C1c2ccccc2-c2onc3c(Sc4ccccc4)cc(Sc4ccccc4)c1c23 [AG-690/40097114] | 1.725
CC(C)(C)c1ccc(Oc2cc(Nc3ccccc3)c3c4c(onc24)-c2ccccc2C3=O)cc1 [AG-690/40097127] | 11.435
Cc1ccc(-c2cc(-c3ccccc3Cl)c3c(N)c(-c4nnc(-c5ccccc5)o4)sc3n2)cc1 [AG-690/40749514] | -4.41
COc1ccc(-c2cc(C(=O)Nc3ccccc3-c3ccccc3)c3ccccc3n2)cc1 [AG-690/40749597] | 2.49
CCOC(=O)c1c(/N=C(/Nc2ccccc2-c2ccccc2)c2ccccc2)sc2c1CCCC2 [AG-690/40750112] | 16.665
Cc1ccc(S(=O)(=O)N(Cc2n[nH]c(=S)n2-c2ccccc2)c2cccc(Cl)c2)cc1 [AG-690/40751357] | 8.965
CCCCC1CCC(c2nc3c4c(c(Nc5cccc(C)c5)ccc4n2)C(=O)c2ccccc2-3)CC1 (stereo not shown) [AH-034/08463011] | 1.2
CCOc1cc(/C=N\NC(=O)CCc2ccccc2)ccc1OC(=O)/C=C/c1ccccc1 [AH-487/37011044] | -17.16
Cc1cccc(N(CC(=O)N/N=C/c2cccc(Br)c2)S(=O)(=O)c2ccccc2)c1C [AH-487/40936079] | 0.44
O=C1c2cccc3c2C2=S(Sc4ccc(NC5CCCCC5)c1c42)N3C1CCCCC1 (stereo not shown) [AH-541/12737056] | 12.4
